Literature values in US20050106735A1, “COMPOSITON FOR NON-TOXIC, NON-HAZARDOUS, AND ENVIRONMENTALLY FRIENDLY HUMIDITY-INDICATING AGENT AND ITS APPLICATION” (GP&E AMERICA, LLC, priority 2004, published 2005).

Tests used:
Rat = settings: oral

Which “Toxicity to aquatic organisms” value (aquatic organisms) does the source give for `[Cl-].[Cl-].[Zn+2]` [Zinc Chloride] here?
The value was “very toxic to aquatic organisms”.

And the “Toxicity (ORL-RAT LD50)” value (Rat)?
The value was 350 mg/kg.

With `[Cl][Co][Cl]` [Cobalt Chloride] as the compound, how does the “Concentration at which the substance may cause cancer by inhalation” value (Commission Directive 2004/73/EC) read?
Its value is ≥ 0.01%.

What about the “European Union carcinogen classification” value (Council Directive 67/548/EEC) of the same compound?
The value was “category 2 carcinogen”.

What about the “Toxicity (ORL-RAT LD50)” value (Rat) of the same compound?
The value was 80 mg/kg.

With `[Cl][Cu][Cl]` [Copper Chloride] as the compound, how does the “Toxicity (ORL-RAT LD50)” value (Rat) read?
The value was 584 mg/kg.

For `[Cl-].[Na+]` [Sodium Chloride], which “Toxicity (ORL-RAT LD50)” value (Rat) is on record?
Its value is 3000 mg/kg.

With `[Cl-].[Cl-].[Mg+2]` [Magnesium Chloride] as the compound, how does the “Toxicity (ORL-RAT LD50)” value (Rat) read?
The value was 8100 mg/kg.
